According to the NIST ThermoML archive (doi:10.1016/j.fluid.2016.02.031):
± gives the expanded uncertainty stated by the source.

Assay: xn = mol fraction of the nth substance listed
Conditions: 100 kPa, Liquid; for viscosity: Concentric cylinders viscometry; for mass density: Vibrating tube method

c1ccncc1 [pyridine] + CCC(C)=O
Conditions | mass density [kg/m3] | viscosity [mPa·s]
288.15 K, x1 = 0.1006 | 827.262 ± 0.2 | 0.4555 ± 0.0067
288.15 K, x1 = 0.2019 | 844.704 ± 0.2 | 0.4928 ± 0.0071
288.15 K, x1 = 0.3002 | 861.833 ± 0.2 | 0.5309 ± 0.0074
288.15 K, x1 = 0.4004 | 879.307 ± 0.2 | 0.5771 ± 0.0079
288.15 K, x1 = 0.4999 | 896.875 ± 0.19 | 0.629 ± 0.0084
288.15 K, x1 = 0.597 | 914.2 ± 0.19 | 0.6859 ± 0.009
288.15 K, x1 = 0.6998 | 932.635 ± 0.19 | 0.7603 ± 0.0097
288.15 K, x1 = 0.7945 | 949.796 ± 0.19 | 0.8375 ± 0.01
288.15 K, x1 = 0.8962 | 968.632 ± 0.18 | 0.9269 ± 0.011
288.15 K, x1 = 1 | 988.077 ± 0.18 | 1.053 ± 0.013
293.15 K, x1 = 0.1006 | 822.086 ± 0.2 | 0.4381 ± 0.0066
293.15 K, x1 = 0.2019 | 839.557 ± 0.2 | 0.4718 ± 0.0069
293.15 K, x1 = 0.3002 | 856.714 ± 0.2 | 0.5088 ± 0.0072
293.15 K, x1 = 0.4004 | 874.211 ± 0.2 | 0.5501 ± 0.0076
293.15 K, x1 = 0.4999 | 891.802 ± 0.19 | 0.5983 ± 0.0081
293.15 K, x1 = 0.597 | 909.146 ± 0.19 | 0.6505 ± 0.0086
293.15 K, x1 = 0.6998 | 927.59 ± 0.19 | 0.7177 ± 0.0093
293.15 K, x1 = 0.7945 | 944.768 ± 0.19 | 0.7876 ± 0.01
293.15 K, x1 = 0.8962 | 963.61 ± 0.18 | 0.8683 ± 0.011
293.15 K, x1 = 1 | 983.053 ± 0.18 | 0.9801 ± 0.012
298.15 K, x1 = 0.1006 | 816.889 ± 0.21 | 0.4203 ± 0.0064
298.15 K, x1 = 0.2019 | 834.388 ± 0.2 | 0.4516 ± 0.0067
298.15 K, x1 = 0.3002 | 851.571 ± 0.2 | 0.4867 ± 0.007
298.15 K, x1 = 0.4004 | 869.094 ± 0.2 | 0.5243 ± 0.0074
298.15 K, x1 = 0.4999 | 886.708 ± 0.2 | 0.5689 ± 0.0078
298.15 K, x1 = 0.597 | 904.074 ± 0.19 | 0.6164 ± 0.0083
298.15 K, x1 = 0.6998 | 922.541 ± 0.19 | 0.6779 ± 0.0089
298.15 K, x1 = 0.7945 | 939.726 ± 0.19 | 0.7418 ± 0.0095
298.15 K, x1 = 0.8962 | 958.58 ± 0.19 | 0.8147 ± 0.01
298.15 K, x1 = 1 | 978.02 ± 0.18 | 0.9155 ± 0.011
303.15 K, x1 = 0.1006 | 811.664 ± 0.21 | 0.4019 ± 0.0062
303.15 K, x1 = 0.2019 | 829.195 ± 0.2 | 0.4317 ± 0.0065
303.15 K, x1 = 0.3002 | 846.407 ± 0.2 | 0.4649 ± 0.0068
303.15 K, x1 = 0.4004 | 863.96 ± 0.2 | 0.5 ± 0.0072
303.15 K, x1 = 0.4999 | 881.597 ± 0.2 | 0.5409 ± 0.0075
303.15 K, x1 = 0.597 | 898.986 ± 0.19 | 0.5851 ± 0.008
303.15 K, x1 = 0.6998 | 917.474 ± 0.19 | 0.6402 ± 0.0085
303.15 K, x1 = 0.7945 | 934.676 ± 0.19 | 0.6995 ± 0.0091
303.15 K, x1 = 0.8962 | 953.536 ± 0.19 | 0.7669 ± 0.0097
303.15 K, x1 = 1 | 972.979 ± 0.18 | 0.8568 ± 0.011
308.15 K, x1 = 0.1006 | 806.406 ± 0.21 | 0.3835 ± 0.0061
308.15 K, x1 = 0.2019 | 823.972 ± 0.2 | 0.4117 ± 0.0063
308.15 K, x1 = 0.3002 | 841.216 ± 0.2 | 0.4432 ± 0.0066
308.15 K, x1 = 0.4004 | 858.797 ± 0.2 | 0.4758 ± 0.0069
308.15 K, x1 = 0.4999 | 876.465 ± 0.2 | 0.5142 ± 0.0073
308.15 K, x1 = 0.597 | 893.873 ± 0.19 | 0.555 ± 0.0077
308.15 K, x1 = 0.6998 | 912.381 ± 0.19 | 0.6063 ± 0.0082
308.15 K, x1 = 0.7945 | 929.606 ± 0.19 | 0.6588 ± 0.0087
308.15 K, x1 = 0.8962 | 948.477 ± 0.19 | 0.7219 ± 0.0093
308.15 K, x1 = 1 | 967.923 ± 0.18 | 0.8032 ± 0.01
313.15 K, x1 = 0.1006 | 801.119 ± 0.21 | 0.3653 ± 0.0059
313.15 K, x1 = 0.2019 | 818.72 ± 0.21 | 0.392 ± 0.0062
313.15 K, x1 = 0.3002 | 835.996 ± 0.2 | 0.4219 ± 0.0064
313.15 K, x1 = 0.4004 | 853.612 ± 0.2 | 0.4528 ± 0.0067
313.15 K, x1 = 0.4999 | 871.309 ± 0.2 | 0.4887 ± 0.007
313.15 K, x1 = 0.597 | 888.742 ± 0.2 | 0.5265 ± 0.0074
313.15 K, x1 = 0.6998 | 907.282 ± 0.19 | 0.5741 ± 0.0078
313.15 K, x1 = 0.7945 | 924.517 ± 0.19 | 0.6226 ± 0.0083
313.15 K, x1 = 0.8962 | 943.403 ± 0.19 | 0.6809 ± 0.0089
313.15 K, x1 = 1 | 962.857 ± 0.18 | 0.7546 ± 0.0096
318.15 K, x1 = 0.1006 | 795.798 ± 0.21 | 0.3502 ± 0.0058
318.15 K, x1 = 0.2019 | 813.436 ± 0.21 | 0.3728 ± 0.006
318.15 K, x1 = 0.3002 | 830.749 ± 0.2 | 0.401 ± 0.0062
318.15 K, x1 = 0.4004 | 848.397 ± 0.2 | 0.4308 ± 0.0065
318.15 K, x1 = 0.4999 | 866.128 ± 0.2 | 0.4642 ± 0.0068
318.15 K, x1 = 0.597 | 883.587 ± 0.2 | 0.4996 ± 0.0071
318.15 K, x1 = 0.6998 | 902.151 ± 0.19 | 0.544 ± 0.0076
318.15 K, x1 = 0.7945 | 919.408 ± 0.19 | 0.5893 ± 0.008
318.15 K, x1 = 0.8962 | 938.312 ± 0.19 | 0.6417 ± 0.0085
318.15 K, x1 = 1 | 957.777 ± 0.18 | 0.7103 ± 0.0092
323.15 K, x1 = 0.1006 | 790.436 ± 0.21 | 0.3328 ± 0.0056
323.15 K, x1 = 0.2019 | 808.12 ± 0.21 | 0.3539 ± 0.0058
323.15 K, x1 = 0.3002 | 825.467 ± 0.2 | 0.3807 ± 0.0061
323.15 K, x1 = 0.4004 | 843.151 ± 0.2 | 0.4095 ± 0.0063
323.15 K, x1 = 0.4999 | 860.918 ± 0.2 | 0.4409 ± 0.0066
323.15 K, x1 = 0.597 | 878.406 ± 0.2 | 0.4742 ± 0.0069
323.15 K, x1 = 0.6998 | 896.999 ± 0.19 | 0.5159 ± 0.0073
323.15 K, x1 = 0.7945 | 914.28 ± 0.19 | 0.5586 ± 0.0077
323.15 K, x1 = 0.8962 | 933.202 ± 0.19 | 0.6072 ± 0.0082
323.15 K, x1 = 1 | 952.682 ± 0.18 | 0.6698 ± 0.0088
328.15 K, x1 = 0.1006 | 785.039 ± 0.21 | 0.3157 ± 0.0055
328.15 K, x1 = 0.2019 | 802.762 ± 0.21 | 0.3354 ± 0.0057
328.15 K, x1 = 0.3002 | 820.152 ± 0.21 | 0.361 ± 0.0059
328.15 K, x1 = 0.4004 | 837.875 ± 0.2 | 0.3888 ± 0.0061
328.15 K, x1 = 0.4999 | 855.68 ± 0.2 | 0.4185 ± 0.0064
328.15 K, x1 = 0.597 | 873.198 ± 0.2 | 0.4502 ± 0.0067
328.15 K, x1 = 0.6998 | 891.821 ± 0.2 | 0.4899 ± 0.007
328.15 K, x1 = 0.7945 | 909.127 ± 0.19 | 0.5297 ± 0.0074
328.15 K, x1 = 0.8962 | 928.07 ± 0.19 | 0.5771 ± 0.0079
328.15 K, x1 = 1 | 947.564 ± 0.18 | 0.6329 ± 0.0084
333.15 K, x1 = 0.1006 | 779.596 ± 0.21 | 0.2989 ± 0.0054
333.15 K, x1 = 0.2019 | 797.367 ± 0.21 | 0.3189 ± 0.0055
333.15 K, x1 = 0.3002 | 814.798 ± 0.21 | 0.3422 ± 0.0057
333.15 K, x1 = 0.4004 | 832.563 ± 0.2 | 0.3696 ± 0.006
333.15 K, x1 = 0.4999 | 850.405 ± 0.2 | 0.3985 ± 0.0062
333.15 K, x1 = 0.597 | 867.959 ± 0.2 | 0.4291 ± 0.0065
333.15 K, x1 = 0.6998 | 886.618 ± 0.2 | 0.4668 ± 0.0068
333.15 K, x1 = 0.7945 | 903.947 ± 0.19 | 0.5039 ± 0.0072
333.15 K, x1 = 0.8962 | 922.92 ± 0.19 | 0.549 ± 0.0076
333.15 K, x1 = 1 | 942.433 ± 0.18 | 0.5997 ± 0.0081
